Experimental data: patent publication US9567302B2, “Carbamate compounds and of making and using same” (Abide Therapeutics, Inc., priority 2012, dated 2017)

Tests used:
Assay type in all cases: biochemical
Parameters in all cases: from tissue
ABHD6 = target: T1, ABHD6 (Mus musculus, UniProt Q8R2Y0); experiment: In vitro competitive ABPP, % inhibition at fixed concentration, ABHD6
T1 sequence (Q8R2Y0 1-336): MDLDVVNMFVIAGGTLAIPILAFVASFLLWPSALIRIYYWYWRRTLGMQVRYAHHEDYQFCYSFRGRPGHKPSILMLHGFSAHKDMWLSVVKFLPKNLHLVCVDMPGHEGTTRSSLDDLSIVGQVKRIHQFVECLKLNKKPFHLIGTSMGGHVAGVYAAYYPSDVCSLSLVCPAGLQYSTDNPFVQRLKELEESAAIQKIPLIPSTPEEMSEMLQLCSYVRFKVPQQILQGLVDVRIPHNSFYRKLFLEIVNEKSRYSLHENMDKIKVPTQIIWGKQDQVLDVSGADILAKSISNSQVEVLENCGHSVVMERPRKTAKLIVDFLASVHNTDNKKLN
Method: (§1) In Vitro Competitive Activity-Based Protein Profiling.
(§2) Proteomes (mouse brain membrane fraction or cell lysates) (50 μL, 1.0 mg/ml total protein concentration) were preincubated with varying concentrations of inhibitors at 37° C. After 30 min, FP-Rh (1.0 μL, 50 μM in DMSO) was added and the mixture was incubated for another 30 min at 37° C. Reactions were quenched with SDS loading buffer (50 μL—4×) and run on SDS-PAGE. Following gel imaging, serine hydrolase activity was determined by measuring fluorescent intensity of gel bands corresponding to MAGL, ABHD6 and FAAH using ImageJ 1.43u software.

MAGL = target: T2, MAGL (Mus musculus, UniProt O35678); experiment: In vitro competitive ABPP, % inhibition at fixed concentration, MAGL
T2 sequence (O35678 1-303): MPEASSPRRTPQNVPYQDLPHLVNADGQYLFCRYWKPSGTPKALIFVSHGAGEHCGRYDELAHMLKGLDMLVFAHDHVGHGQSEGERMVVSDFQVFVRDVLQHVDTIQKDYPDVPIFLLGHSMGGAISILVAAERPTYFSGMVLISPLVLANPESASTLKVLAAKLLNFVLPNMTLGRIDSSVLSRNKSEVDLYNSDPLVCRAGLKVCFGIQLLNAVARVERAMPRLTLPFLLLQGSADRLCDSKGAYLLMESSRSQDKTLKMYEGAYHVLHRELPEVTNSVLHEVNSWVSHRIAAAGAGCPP
Method: as §1, §2

FAAH = target: T3, FAAH (Mus musculus, UniProt O08914); experiment: In vitro competitive ABPP, % inhibition at fixed concentration, FAAH
T3 sequence (O08914 1-579): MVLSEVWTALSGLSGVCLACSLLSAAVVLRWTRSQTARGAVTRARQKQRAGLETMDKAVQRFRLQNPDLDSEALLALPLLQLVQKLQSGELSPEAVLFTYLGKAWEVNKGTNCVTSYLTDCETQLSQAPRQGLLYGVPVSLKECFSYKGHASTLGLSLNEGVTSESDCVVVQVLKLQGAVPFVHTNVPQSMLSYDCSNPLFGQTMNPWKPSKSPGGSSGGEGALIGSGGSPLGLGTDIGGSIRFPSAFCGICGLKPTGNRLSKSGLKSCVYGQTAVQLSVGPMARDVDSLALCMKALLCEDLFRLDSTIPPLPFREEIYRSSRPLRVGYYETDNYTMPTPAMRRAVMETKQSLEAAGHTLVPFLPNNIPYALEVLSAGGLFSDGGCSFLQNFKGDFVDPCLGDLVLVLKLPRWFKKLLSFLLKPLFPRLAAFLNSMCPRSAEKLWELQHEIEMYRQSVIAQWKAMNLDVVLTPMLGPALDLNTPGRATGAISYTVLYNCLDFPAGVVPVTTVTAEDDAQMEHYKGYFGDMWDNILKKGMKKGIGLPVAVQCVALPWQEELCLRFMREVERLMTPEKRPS
Method: as §1, §2

Compound	inhibition at 1 µM (ABHD6) [%]	inhibition at 10 µM (ABHD6) [%]	inhibition at 1 µM (MAGL) [%]	inhibition at 10 µM (MAGL) [%]	inhibition at 1 µM (FAAH) [%]	inhibition at 10 µM (FAAH) [%]
CS(=O)(=O)N1CCN(C(=O)ON2C(=O)CCC2=O)CC1 [Example 126, 2,5-Dioxopyrrolidin-1-yl 4-methanesulfonylpiperazine-1-carboxylate]	< 25	< 25	25 to 75	< 25	< 25	< 25
Cc1cc(-c2cccnc2C)ccc1CN1CCN(C(=O)ON2C(=O)CCC2=O)CC1 [Example 170, 2,5-Dioxopyrrolidin-1-yl 4-{[2-methyl-4-(2-methylpyridin-3-yl)phenyl]methyl}piperazine-1-carboxylate]	25 to 75	–	25 to 75	–	< 25	–
Cc1nc(-c2cccc(F)c2)ccc1CN1CCN(C(=O)ON2C(=O)CCC2=O)CC1 [Example 185, 2,5-Dioxopyrrolidin-1-yl 4-{[6-(3-fluorophenyl)-2-methylpyridin-3-yl]methyl}piperazine-1-carboxylate]	> 75	–	> 75	–	< 25	–
O=C(ON1C(=O)CCC1=O)N1CCN(Cc2ccc(C(=O)N3CCC3)cc2Cl)CC1 [Example 194, 2,5-Dioxopyrrolidin-1-yl 4-{[4-(azetidine-1-carbonyl)-2-chlorophenyl]methyl}piperazine-1-carboxylate]	25 to 75	–	25 to 75	–	< 25	–
Cc1cccc(-c2ccc(CN3CCN(C(=O)ON4C(=O)CCC4=O)CC3)c(F)c2)n1 [Example 175, 2,5-Dioxopyrrolidin-1-yl 4-{[2-fluoro-4-(6-methylpyridin-2-yl)phenyl]methyl}piperazine-1-carboxylate]	25 to 75	–	25 to 75	–	< 25	–
Cc1ccccc1-c1ccc(CN2CCN(C(=O)ON3C(=O)CCC3=O)CC2)nc1C [Example 179, 2,5-Dioxopyrrolidin-1-yl 4-{[6-methyl-5-(2-methylphenyl)pyridin-2-yl]methyl}piperazine-1-carboxylate]	25 to 75	–	25 to 75	–	< 25	–
COc1cc(-c2ccccc2)ccc1CN1CCN(C(=O)ON2C(=O)CCC2=O)CC1 [Example 167, 2,5-Dioxopyrrolidin-1-yl 4-[(2-methoxy-4-phenylphenyl)methyl]piperazine-1-carboxylate]	25 to 75	–	> 75	–	< 25	–
C[C@H]1CN(Cc2ccc(N3CCOCC3)cc2F)CCN1C(=O)ON1C(=O)CCC1=O [Example 88, 2,5-Dioxopyrrolidin-1-yl (2S)-4-{[2-fluoro-4-(morpholin-4-yl)phenyl]methyl}-2-methylpiperazine-1-carboxylate]	25 to 75	–	25 to 75	–	< 25	–
O=C(ON1C(=O)CCC1=O)N1CCN(Cc2ccc(Cl)cc2N2CCC3(CCNC3=O)CC2)CC1 [Example 111, 2,5-Dioxopyrrolidin-1-yl 4-[(4-chloro-2-{1-oxo-2,8-diazaspiro[4.51]decan-8-yl}phenyl)methyl]piperazine-1-carboxylate]	25 to 75	–	25 to 75	–	< 25	–
Cc1cccc(-c2ccc(CN3CCN(C(=O)ON4C(=O)CCC4=O)CC3)c(C)c2)c1 [Example 163, 2,5-Dioxopyrrolidin-1-yl 4-{[2-methyl-4-(3-methylphenyl)phenyl]methyl}piperazine-1-carboxylate]	25 to 75	–	25 to 75	–	< 25	–
O=C(ON1C(=O)CCC1=O)N1CCN(Cc2ccc(C(=O)N3CCOCC3)cc2Cl)CC1 [Example 192, 2,5-dioxopyrrolidin-1-yl 4-{[2-chloro-4-(morpholine-4-carbonyl)phenyl]methyl}piperazine-1-carboxylate]	25 to 75	–	25 to 75	–	< 25	–
